Results published in ChEMBL document CHEMBL3885861, “Open TG-GATES”.

Species on record: Rattus norvegicus
Assay: Open TG-GATES - Regimen: Daily Repeat
Format: toxicity, organism-based, Sprague-Dawley
Set-up: regimen Daily Repeat, gender Male, age 6 weeks
Details: in vivo, po, 100 mg/kg, route gavage, dose level Low; for APTT / Bas / Eos / Fbg / Hb / Ht / Lym / MCH / MCHC / MCV / Mono / Neu / PT / Plat / RBC / Ret / WBC: tissue Blood; for KIDNEY_L / KIDNEY_R / KIDNEY_TOTAL: tissue Kidney; for LIVER: tissue Liver; for A/G / ALP / ALT / AST / BUN / CRE / Ca / Cl / DBIL / GLC / IP / K / LDH / Na / PL / RALB / TBIL / TC / TG / TP / gamma-GTP: tissue Plasma

SMILES: O=C(OC[C@H]1O[C@@H](OC(=O)c2cc(O)c(O)c(OC(=O)c3cc(O)c(O)c(O)c3)c2)[C@H](OC(=O)c2cc(O)c(O)c(OC(=O)c3cc(O)c(O)c(O)c3)c2)[C@@H](OC(=O)c2cc(O)c(O)c(OC(=O)c3cc(O)c(O)c(O)c3)c2)[C@@H]1OC(=O)c1cc(O)c(O)c(OC(=O)c2cc(O)c(O)c(O)c2)c1)c1cc(O)c(O)c(OC(=O)c2cc(O)c(O)c(O)c2)c1 [TANNIC ACID]
- TERMINAL_BW (72 h, time 3 day): 221.9 g
- APTT (72 h, time 3 day): 16.9 s
- Bas (72 h, time 3 day): 0%
- Eos (72 h, time 3 day): 1%
- Fbg (72 h, time 3 day): 234.4 mg/dL
- Hb (72 h, time 3 day): 13.2 g/dL
- Ht (72 h, time 3 day): 39.2%
- Lym (72 h, time 3 day): 72.6%
- MCH (72 h, time 3 day): 22.3 pg
- MCHC (72 h, time 3 day): 33.6%
- MCV (72 h, time 3 day): 66.4 fL
- Mono (72 h, time 3 day): 12.2%
- Neu (72 h, time 3 day): 14.4%
- PT (72 h, time 3 day): 11.5 s
- Plat (72 h, time 3 day): 111.4 x10_4/uL
- RBC (72 h, time 3 day): 590.2 x10_4/ul
- Ret (72 h, time 3 day): 8.8%
- WBC (72 h, time 3 day): 90.6 x10_2/uL
- KIDNEY_L (72 h, time 3 day): 1 g
- KIDNEY_R (72 h, time 3 day): 1 g
- KIDNEY_TOTAL (72 h, time 3 day): 2 g
- LIVER (72 h, time 3 day): 11.1 g
- A/G (72 h, time 3 day): 2.3
- ALP (72 h, time 3 day): 864 IU/L
- ALT (72 h, time 3 day): 33.4 IU/L
- AST (72 h, time 3 day): 61.4 IU/L
- BUN (72 h, time 3 day): 18.8 mg/dL
- CRE (72 h, time 3 day): 0.5 mg/dL
- Ca (72 h, time 3 day): 11 mg/dL
- Cl (72 h, time 3 day): 104.2 meq/L
- DBIL (72 h, time 3 day): 0 mg/dL
- GLC (72 h, time 3 day): 204.8 mg/dL
- IP (72 h, time 3 day): 8.6 mg/dL
- K (72 h, time 3 day): 4.8 meq/L
- LDH (72 h, time 3 day): 68.4 IU/L
- Na (72 h, time 3 day): 139.8 meq/L
- PL (72 h, time 3 day): 154.6 mg/dL
- RALB (72 h, time 3 day): 4 g/dL
- TBIL (72 h, time 3 day): 0.3 mg/dL
- TC (72 h, time 3 day): 84.6 mg/dL
- TG (72 h, time 3 day): 100.8 mg/dL
- TP (72 h, time 3 day): 5.7 g/dL
- gamma-GTP (72 h, time 3 day): 1.2 IU/L
- TERMINAL_BW ([…], time 7 day): 249.2 g
- TERMINAL_BW ([…], time 14 day): 296.1 g
- TERMINAL_BW ([…], time 28 day): 380.6 g
- APTT ([…], time 7 day): 16.3 s
- Bas ([…], time 7 day): 0%
- Eos ([…], time 7 day): 1%
- Fbg ([…], time 7 day): 221.6 mg/dL
- Hb ([…], time 7 day): 13.4 g/dL
- Ht ([…], time 7 day): 40.3%
- Lym ([…], time 7 day): 74.8%
- MCH ([…], time 7 day): 21 pg
- MCHC ([…], time 7 day): 33.3%
- MCV ([…], time 7 day): 63.3 fL
- Mono ([…], time 7 day): 7.4%
- Neu ([…], time 7 day): 16.8%
- PT ([…], time 7 day): 11 s
- Plat ([…], time 7 day): 122.5 x10_4/uL
- RBC ([…], time 7 day): 638.6 x10_4/ul
- Ret ([…], time 7 day): 6.5%
- WBC ([…], time 7 day): 119 x10_2/uL
- APTT ([…], time 14 day): 16.7 s
- Bas ([…], time 14 day): 0%
- Eos ([…], time 14 day): 1%
- Fbg ([…], time 14 day): 261 mg/dL
- Hb ([…], time 14 day): 14.3 g/dL
- Ht ([…], time 14 day): 42.9%
- Lym ([…], time 14 day): 74.5%
- MCH ([…], time 14 day): 20.9 pg
- MCHC ([…], time 14 day): 33.4%
- MCV ([…], time 14 day): 62.6 fL
- Mono ([…], time 14 day): 6.8%
- Neu ([…], time 14 day): 18%
- PT ([…], time 14 day): 11.5 s
- Plat ([…], time 14 day): 129.4 x10_4/uL
- RBC ([…], time 14 day): 685.8 x10_4/ul
- Ret ([…], time 14 day): 4.6%
- WBC ([…], time 14 day): 136 x10_2/uL
- APTT ([…], time 28 day): 15.9 s
- Bas ([…], time 28 day): 0%
- Eos ([…], time 28 day): 1.2%
- Fbg ([…], time 28 day): 230 mg/dL
- Hb ([…], time 28 day): 15.1 g/dL
- Ht ([…], time 28 day): 45%
- Lym ([…], time 28 day): 80.4%
- MCH ([…], time 28 day): 19.9 pg
- MCHC ([…], time 28 day): 33.5%
- MCV ([…], time 28 day): 59.5 fL
- Mono ([…], time 28 day): 5.8%
- Neu ([…], time 28 day): 12.4%
- PT ([…], time 28 day): 12 s
- Plat ([…], time 28 day): 116.4 x10_4/uL
- RBC ([…], time 28 day): 757.4 x10_4/ul
- Ret ([…], time 28 day): 2.8%
- WBC ([…], time 28 day): 142.1 x10_2/uL
- KIDNEY_L ([…], time 7 day): 1 g
- KIDNEY_R ([…], time 7 day): 1 g
- KIDNEY_TOTAL ([…], time 7 day): 2.1 g
- KIDNEY_L ([…], time 14 day): 1.1 g
- KIDNEY_R ([…], time 14 day): 1.2 g
- KIDNEY_TOTAL ([…], time 14 day): 2.3 g
- KIDNEY_L ([…], time 28 day): 1.4 g
- KIDNEY_R ([…], time 28 day): 1.5 g
- KIDNEY_TOTAL ([…], time 28 day): 2.9 g
- LIVER ([…], time 7 day): 12.2 g
- LIVER ([…], time 14 day): 13.7 g
- LIVER ([…], time 28 day): 15.5 g
- A/G ([…], time 7 day): 1.5
- ALP ([…], time 7 day): 796.4 IU/L
- ALT ([…], time 7 day): 32.2 IU/L
- AST ([…], time 7 day): 62.6 IU/L
- BUN ([…], time 7 day): 18.4 mg/dL
- CRE ([…], time 7 day): 0.5 mg/dL
- Ca ([…], time 7 day): 11.1 mg/dL
- Cl ([…], time 7 day): 103.2 meq/L
- DBIL ([…], time 7 day): 0.004 mg/dL
- GLC ([…], time 7 day): 207.4 mg/dL
- IP ([…], time 7 day): 8.3 mg/dL
- K ([…], time 7 day): 4.3 meq/L
- LDH ([…], time 7 day): 87.6 IU/L
- Na ([…], time 7 day): 138 meq/L
- PL ([…], time 7 day): 160.8 mg/dL
- RALB ([…], time 7 day): 3.6 g/dL
- TBIL ([…], time 7 day): 0.4 mg/dL
- TC ([…], time 7 day): 84.2 mg/dL
- TG ([…], time 7 day): 116.2 mg/dL
- TP ([…], time 7 day): 6 g/dL
- gamma-GTP ([…], time 7 day): 1.6 IU/L
- A/G ([…], time 14 day): 1.8
- ALP ([…], time 14 day): 726.5 IU/L
- ALT ([…], time 14 day): 32 IU/L
- AST ([…], time 14 day): 58.2 IU/L
- BUN ([…], time 14 day): 18.5 mg/dL
- CRE ([…], time 14 day): 0.6 mg/dL
- Ca ([…], time 14 day): 10.9 mg/dL
- Cl ([…], time 14 day): 102.8 meq/L
- DBIL ([…], time 14 day): 0.01 mg/dL
- GLC ([…], time 14 day): 207.5 mg/dL
- IP ([…], time 14 day): 8.3 mg/dL
- K ([…], time 14 day): 4.2 meq/L
- LDH ([…], time 14 day): 77 IU/L
- Na ([…], time 14 day): 140 meq/L
- PL ([…], time 14 day): 140.2 mg/dL
- RALB ([…], time 14 day): 3.9 g/dL
- TBIL ([…], time 14 day): 0.3 mg/dL
- TC ([…], time 14 day): 69.5 mg/dL
- TG ([…], time 14 day): 100.2 mg/dL
- TP ([…], time 14 day): 6.1 g/dL
- gamma-GTP ([…], time 14 day): 1.8 IU/L
- A/G ([…], time 28 day): 1.6
- ALP ([…], time 28 day): 659.6 IU/L
- ALT ([…], time 28 day): 34 IU/L
- AST ([…], time 28 day): 64.6 IU/L
- BUN ([…], time 28 day): 20.2 mg/dL
- CRE ([…], time 28 day): 0.6 mg/dL
- Ca ([…], time 28 day): 10.8 mg/dL
- Cl ([…], time 28 day): 106.4 meq/L
- DBIL ([…], time 28 day): 0.006 mg/dL
- GLC ([…], time 28 day): 196.8 mg/dL
- IP ([…], time 28 day): 7.4 mg/dL
- K ([…], time 28 day): 4.3 meq/L
- LDH ([…], time 28 day): 78.2 IU/L
- Na ([…], time 28 day): 139.4 meq/L
- PL ([…], time 28 day): 145.8 mg/dL
- RALB ([…], time 28 day): 3.8 g/dL
- TBIL ([…], time 28 day): 0.3 mg/dL
- TC ([…], time 28 day): 70.6 mg/dL
- TG ([…], time 28 day): 108 mg/dL
- TP ([…], time 28 day): 6.2 g/dL
- gamma-GTP ([…], time 28 day): 2 IU/L
